In a melting point compilation (Tetko et al.; mined from patent text by program, amines drawn as free bases though some values may be those of a salt):

| SMILES | melting point [°C] |
| --- | --- |
| COc1ccc(CCNC(=O)CC(NC(=O)CCNC(=O)c2ccc(C(=N)N)cc2)C(=O)O)cc1 (centres undefined) | 217 |
| CN(C(=O)c1ccc([N+](=O)[O-])cc1)C1N(C)C(c2ccc(F)cc2)=NC1(C(F)(F)F)C(F)(F)F (centres undefined) | 174 to 175 |
| Cc1cc(O)c(SCc2cccc3ccccc23)c(=O)o1 | 170 |
| O=C(NC(=O)c1ccc(F)cc1Cl)Nc1ccc(Cl)c(Cl)c1 | 208 |
| O=C1C=CN2c3ccccc3CCC2C1 (centres undefined) | 135 to 137 |
| CS(=O)(=O)N1CCC(C=O)CC1 | 97 |
| CN(C)c1nnc(NN)c(=O)[nH]1 | 264 to 266 |
| CC1(C)COC(c2ccc(-c3ccc4cc(O)ccc4c3)cc2)=N1 | 221 to 223 |
| CCCCCCCCCCCCCCCCCCOc1cc(OCCCCC(=O)OC)cc(C(=O)OCc2ccccc2)c1 | 40 to 42 |
| COCCOc1ccc(/C=C/C(=O)O)c(Oc2ccc(C(F)(F)F)cc2Cl)c1 | 166 |
| Cc1nc2ccc(N)cn2c(=O)c1CCCl | 185 |
| CCOC(=O)C(=C(c1ccc(F)cc1)c1ccc(F)cc1)c1nnn(C)n1 | 117 to 118 |
| CCOC(=O)Cn1ncc(-c2ccccc2)c1-c1ccccc1 | 79 to 81 |
| COC(=O)c1ncccc1NC(=O)C(C)CS (centres undefined) | 55 to 56 |
| O=C1CCC[C@@H](c2ccc(Cl)cc2)N1c1ccccc1 | 77.5 to 80 |
| O=C1c2c(-c3ccccc3)cc(CNC3CC3)nc2OCCN1Cc1cc(C(F)(F)F)cc(C(F)(F)F)c1 | 129 to 131 |
| NC(=O)Cc1ccc2c(c1)C(=O)Cc1cccnc1O2 | 214 to 217 |
| CC1=C(C(=O)OC(C)(C)C)C(c2ccc(Br)cc2F)C(C(=O)OC(C)(C)C)=C(C)N1 | 187 to 188 |
| Cc1ccc(S(=O)(=O)N2[C@@H](CCO)CC[C@H]2c2ccc(F)cc2)cc1 (racemic) | 129 |
| NS(=O)(=O)c1ccc(-n2nc(NC(=O)Nc3cccc(C(F)(F)F)c3)cc2-c2ccccc2)cc1 | 195 to 197 |
| CCOC(=O)c1sc(Cn2cc(Cl)cnc2=O)nc1C | 169 to 171 |
| COc1cc(F)c(C)cc1C#N | 99 to 101 |

| SMILES | melting point [°C] |
| --- | --- |
| CON=C1C=CC=CC1CC(=O)OC (centres undefined) | 96 to 97 |
| CC(=O)SCC(Cc1ccccc1)C(=O)Nc1ccc(N2CCCC2)c(C(=O)O)c1 (centres undefined) | 176 to 178 |
| FC(F)(F)c1cc(CO[C@@H]2CCCN(Cc3nc4ccccc4o3)[C@@H]2c2ccccc2)cc(C(F)(F)F)c1 (relative stereo) | 95 to 97 |
| CCCc1ccc(OCCC(C)C)c2c(=O)cc(C(=O)O)oc12 | 64.5 to 65 |
| CCCCCCN(C)C(=O)c1cccc(CN2C(=O)C3(COc4cc5c(cc43)CCO5)c3ccccc32)c1 (centres undefined) | 73 to 74 |
| Cc1cc(F)ccc1C(O)(Cc1nnnn1C)c1ccc(F)cc1C | 186 to 188 |
| CC(C)NC(=O)N1CCc2[nH]cnc2C1c1ccccc1 (centres undefined) | 245 |
| COc1ccc(C(O)CCN2CC=C(c3ccc(Cl)cc3)CC2)c(OC)c1 (centres undefined) | 112 to 114 |
| CCc1oc2ccccc2c1C(=O)NCc1ccc2cc(O)ccc2c1 | 203 to 205 |
| COc1ccc(C(=O)O)cc1Nc1ccccc1 | 198 to 200 |
| CCCc1c(C2CCC(c3ccccc3)(N(C)C)CC2)[nH]c2ccccc12 (centres undefined) | 177 to 181 |
| CC(=C1SC(=O)NC1=O)c1cccc(OCCCOc2c(-c3ccc(F)cc3)n(C)c3ccccc3c2=O)c1 | 168 to 170 |
| CCc1c(C(=O)C(N)=O)c2c(OCC(=O)N(C)OCc3ccccc3)cccc2n1Cc1ccccc1 | 186 to 188 |
| N#Cc1ccc(-c2ccc(OCCCC(=O)NO)cc2)cc1 | 170 to 172 |
| COc1cc(OC)c2c(=O)[nH]c(-c3cc(C)c(O)c(C)c3)nc2c1 | 291 to 293 |
| O=C(NC(=O)N1C(=O)Cc2ccccc21)c1ccccc1 | 184 |
| CC(=O)c1ccc(-c2cccnc2)s1 | 104 to 105 |
| Cc1ccc(Sc2c(Cl)c(C(=O)O)c(C(O)=NCCO)c(Cl)c2Sc2ccc(C)cc2)cc1 | 211 to 212 |
| CCCc1nc2c(N)nc3cc(-c4ccccc4)ccc3c2n1CCCC(C)=O | 202 to 204 |
| COc1ccc(C=C2CCN(C(=O)c3nc4ccc(O)cc4[nH]3)CC2)cc1 | 208 |
| COc1ccc2c(c1)c(Cc1cc(=O)n(-c3cnc4ccccc4n3)[nH]1)c(C)n2C(=O)c1ccc(Cl)cc1 | 231 to 233 |
| CSC(=O)C(=O)c1cc(NC=O)ccn1 | 145 to 148 |

| SMILES | melting point [°C] |
| --- | --- |
| O=C(CCl)Nc1c(S)cccc1Cl | 186 to 187 |
| CC(=O)NC(C)(C)c1ccc(-c2nc(Nc3ccc(F)cc3)ncc2C#N)cc1 | 212 to 216 |
| CCc1nc2c(cnn2CC)c(NC2CCOCC2)c1CNC(=O)c1cccc(C(=O)NCc2ccc(OC)c(-c3cccc(C=O)c3)c2)c1 | 118 to 121 |
| Cc1cc(C)nc(-n2c(C(=O)Nc3ccc4c(c3)nc(C)n4C)cc3cc(F)ccc32)c1 | 130 to 140 |
| CON=C1CCCCC1n1nc(-c2c(-c3ccccc3)nn3ccccc23)ccc1=O (centres undefined) | 85 to 87 |
| CCOc1cc(Oc2ccc(S(C)(=O)=O)nc2)cc2cc(C3=NCC(CC(=O)O)S3)[nH]c12 (centres undefined) | 208 to 210 |
| COc1nscc1C(N)=O | 165 to 168 |
| COc1ccc(N2CCN(c3c(C)c(C)c4c(c3C)C(N3CCCCCC3)C(C)(C)O4)CC2)cc1 (centres undefined) | 127 to 128 |
| COC(=O)C1=C(C(=O)OC)C2OC1c1cc3c(cc12)OCO3 | 117 to 119 |
| CS(=O)(=O)c1cc(F)cc2c3c(n(Cc4ccc(Cl)cc4)c12)[C@@H](CC(=O)O)CC3 | 175 |
| Cc1nc(NN)nnc1-c1ccccc1 | 136 to 138 |
| CCCCCCCCCCCCCCCNC(=O)OCC(CO)OC (centres undefined) | 42.5 to 43 |
| CC(C)C1(C)CC(=O)CC(C)(C)N1 (centres undefined) | 47 to 53 |
| N/C(=C1/Sc2ccccc2C1=O)c1ccccc1C(F)(F)F | 148 to 149 |
| CC#CCOc1ccc(S(=O)(=O)N(C)[C@H]2CCC[C@H]2C(=O)NO)cc1 | 160 to 164 |
| NC(Cc1ccc(O)c(O)c1)P(O)O (centres undefined) | 237 to 238 |
| COc1ccc(S(=O)(=O)N2CCc3[nH]c4c(cnc5cc(Cl)ccc54)c3C2)cc1 | > 250 |
| CC(=O)SC[C@H](NC(=O)C(C)C)C(=O)NCCSC(=O)C(C)(C)C | 112 to 114 |
| CN1c2ccccc2CC1COc1ccc(CC2SC(=O)N(C(c3ccccc3)(c3ccccc3)c3ccccc3)C2=O)cc1 (centres undefined) | 62.5 to 65.5 |
| c1cnc2[nH]c(-c3ccc(C4OCCCO4)cc3)cc2n1 | 288 to 289 |
| Cc1cccc(NC(c2ccc(OC(C)C)cc2)c2ccc3cccnc3c2O)n1 (centres undefined) | 132 to 134 |

The next lines start with the values.

| melting point [°C] | SMILES |
| --- | --- |
| 137 to 139 | COC(=O)c1ccnc(NC(=O)C(CSC(C)=O)Cc2ccccc2)c1 (centres undefined) |
| 103 to 104 | CCc1cccc2c3c([nH]c12)C(CC)(CC(C)O)OCC3 (centres undefined) |
| 114 to 116 | Cc1c(C)c2c(c(C)c1O)CCC(C)(COc1ccc([N+](=O)[O-])cc1)O2 (centres undefined) |
| 141 to 144 | CC(COc1ccc(-c2ccc(C#N)cc2)cc1)N(O)C=O (centres undefined) |
| 291 to 293 | S=C1N=c2ccc(OCCN3CCC(Cc4ccc(Cl)cc4)CC3)cc2=N1 |
| 120 to 122 | O=[N+]([O-])c1cc(CSC2OC(CO)C(OC3OC4COC(c5ccccc5)OC4C(O)C3O)C(O)C2O)ccc1Cl (centres undefined) |
| 98 to 101 | COc1ccc(C(=O)N2CCN(c3ccc(N)c(CCC(=O)O)c3)CC2)cc1OC |
| 32 | CCCCCc1ccc(-c2ccc(Cl)s2)cn1 |
| 203 to 204 | CS(=O)(=O)Nc1cc(C(F)(F)F)ccc1-c1cc(Oc2ccc3cccnc3c2)ncn1 |
| 146 to 147 | NC(=O)Cc1ccc2[nH]ccc2c1 |
| 50 to 55 | [N-]=[N+]=NCc1cc(Cl)c(C(=O)c2ccc(Cl)cc2)c(Cl)c1 |
| 135 to 137 | Oc1cc2c(cc1CNc1ccccc1)OCCC2 |
| 151 to 152 | CC(=O)Nc1ccccc1OC(CCc1ccc(Cl)cc1)Cn1ccnc1 (centres undefined) |
| 250 | COc1ccc(-c2[nH]nc3c2C(=O)c2c(NC(=O)NNC(=O)c4cccc(N)c4)cccc2-3)cc1 |
| 69 to 71 | NCc1c(N)cccc1Oc1ccccc1 |
| 143 | COC(=O)c1ccn2ccnc2c1 |
| 169 | COC(=O)c1c(SCc2ccc(OC)cc2)nc(C)n1Cc1cc2c(cc1Cl)OCO2 |

| melting point [°C] | SMILES |
| --- | --- |
| 141 to 143 | CC(C)(C)OC(=O)NCCNC(=O)c1ccc(Cl)cc1 |
| 268 | COc1ccc(-c2nc3cnncc3[nH]2)c(OCC#N)c1 |
| 150 to 152 | CN(C)C(=N)Nc1ccccc1-c1ccc(Cl)cc1 |
| 178 | CC(=O)N1CC(=O)N(C)C(=O)N1c1cc(Cl)c(C(C#N)c2ccc(Cl)cc2)c(Cl)c1 (centres undefined) |
| 192 to 194 | Clc1cc2c3c(c1)C(c1ccccc1)Nc1ccccc1N3CC2 (centres undefined) |
| 234 to 236 | O=C(O)c1ccnc(NC(=O)C(CS)Cc2ccccc2)c1 (centres undefined) |
| 207 to 210 | COc1cc(C(=O)O)c(-c2c(C(=O)O)ccc3c2OCO3)cc1OC |
| 164 | CS(=O)(=O)c1ccc(-n2cncc2-c2ccccc2)cc1 |
| 116 to 120 | CCCCCCCCCN(C[C@H]1CCC[C@H](CN(CCCCCCCCC)C(=O)Nc2ccc(N(C)C)cc2)C1)C(=O)Nc1ccc(N(C)C)cc1 (relative stereo) |
| 163 to 167 | COCCNc1ccc2ncnc(Nc3cccc(C)c3)c2c1 |
| 186 to 187 | Cc1nc2c(N)nc3ccccc3c2n1CCOCCN1CCCS1(=O)=O |
| 148 to 150 | N#Cc1ccn(O)c1-c1ccc(Cl)cc1 |
| 217 to 220 | CSc1sc(-c2ccccn2)c2c1C(=O)CC(C)(C)C2 |
| 215 to 217 | COC(=O)c1ccc(OC(=O)c2cccc(C(=O)Oc3ccc(C(=O)OC)cc3)c2)cc1 |
| 190 to 191 | O=C(Cn1c(-c2ccc(Cl)cc2)nc2cccnc21)Nc1ccccn1 |
| 156 to 170 | CC(C)(C)NC(=O)CN1C(=O)[C@@H](CNC(=O)Nc2cccc(Cl)c2)C[C@H](c2ccccc2)c2ccccc21 |
| 98 to 100 | OC(Cn1cncn1)(c1ccc(Cl)cn1)c1ccc(Cl)cn1 |
